Measurements published in PMC12528394, “Screening and evaluation of therapeutic candidates with vascular protective effects in zebrafish models of diabetic retinopathy” (Scientific Reports, 2025).

Assays:
Type in all cases: in vivo
zebrafish DR model = test: Zebrafish diabetic retinopathy model (130 mM glucose): survival and hyaloid-retinal vessel diameter; conditions: 100 µg/ml, 3 to 6 dpf, n = 40 per group
Procedure: On day 3 post-fertilization, zebrafish embryos with normal differentiation were treated with 130 mM glucose in a 24-well plate (5 embryos per well) to induce a diabetic retinopathy model. Peptides 1, 2, and 3 were administered at concentrations of 20, 100, 200, and 400 µg/ml. On day 6 post-fertilization, embryos were fixed with 4% paraformaldehyde and the hyaloid-retina vessels were isolated. Further experimental details can be found in previous studies.

Angiopoietin-1 = test: RT-PCR mRNA expression in zebrafish DR model; conditions: 100 µg/ml, 130 mM glucose, eyes at 6 dpf, RT-PCR normalized to GAPDH, triplicate
Procedure: (§1) The total RNA were extracted from the eyes at 6 dpf using the mRNA kit (PureLink™ RNA Mini Kit, Ambion). The mRNA was measured with a NanoDrop spectrophotometer (Thermo Scientific, Madison, WI, USA) for quantitative analysis and a cDNA synthesis with a SuperScript VILO cDNA Synthesis Kit (Thermo Scientific, Carlsbad, CA, USA). The cDNA was amplified by PCR with zebrafish primer GAPDH, VEGF, Tie2 and Ang-1 with SYBR Green Master Mix (Thermo Scientific, Carlsbad, CA, USA). The mRNA was detected by ViiA7 Real-Time PCR system (Thermo Scientific, Carlsbad, CA, USA). The values were normalized to GAPDH expression. Samples were analyzed in triplicate.

VEGF = test: RT-PCR mRNA expression in zebrafish DR model; conditions: 100 µg/ml, 130 mM glucose, eyes at 6 dpf, RT-PCR normalized to GAPDH, triplicate
Procedure: as §1

Tie2 = test: RT-PCR mRNA expression in zebrafish DR model; conditions: 100 µg/ml, 130 mM glucose, eyes at 6 dpf, RT-PCR normalized to GAPDH, triplicate
Procedure: as §1

aflibercept
retinal vessel thickness relative to glucose-only group (in words) (zebrafish DR model): effectively reduced | Angiopoietin-1 mRNA level versus high-glucose group (in words) (Angiopoietin-1): partially restored | VEGF mRNA level versus high-glucose group (in words) (VEGF): significantly reduced | Tie2 mRNA level versus high-glucose group (in words) (Tie2): partially restored
